Measured values published in patent US10464902B1, “Multi-tyrosine kinase inhibitors derivatives and methods of use” (Ontogenesis, LLC, priority 2015, dated 2019).
Read-outs that look alike come from different tables or passages of the source.

Experiments:
[1] = tested on: subretinal choroidal neovascularization (CNV); test: Subretinal choroidal neovascularization model after intravitreal injection (virtual example); format: in vivo, mammal (preferably a pigmented rabbit or a primate); conditions: intravitreal 50 uL, 10-20 mg/mL
Protocol: The first solution was then added to a saturated fatty acid (e.g. octanoic acid) combined with lecithin or lecithin derivatives (e.g. phosphatidyl choline), a glycerol fatty acid ester (e.g. propylene glycol fatty acid esters such as polyoxyethyleneglycerol triricinoleate), a sorbitan fatty acid ester (e.g. Span® 20, Span® 80) or a olyoxylethylene sorbitan fatty acid ester (e.g. Tween® 20, Tween® 80), and optionally a co-surfactant (e.g. propylene glycol, glycerol, PEG 400, 1,2-propanediol), which were then solubilized as a microemulsion using commercial lipoemulsion techniques (e.g. Intralipid®, Abbolipid). […] 50 uL of either Lucentis® or Eylea® was administered into the remaining eye of the mammal. 2 weeks after administration a subretinal choroidal neovascularization (CNV) was caused in the eyes of the mammal using techniques explained in Qui G et al., A new model of experimental subretinal neovascularization in the rabbit, Exp Eye Res, 2006 July, 83(1), 141-152. 6 weeks after subretinal CNV eyes of the mammal were sacrificed for examination.

[2] = tested on: intraocular proliferative retinopathy; test: Virtual discovery: intravitreal injection, intraocular proliferative retinopathy; format: in vivo
Source text: With the onset of proliferative retinopathy however conventional anti-VEGF therapy causes increased fibrosis. Van Geest R. J. et al., A shift in the balance of vascular endothelial growth factor and connective tissue growth factor by bevacizumab causes the angiofibrotic switch in proliferative diabetic retinopathy Br J Ophthalmol, 2012 April, 96(4), 587-90. […]. The suppression of intraocular proliferative retinopathy in turn suppresses fibrotic induction and the most severe manifestations of proliferative eye disease. This suppression also is virtually discovered to occur when the methyl of the preferred embodiments is replaced by any alkyl group. […]. As diabetic macular edema is amenable to anti-VEGF therapy, its use in patients with preproliferative severe peripheral ischemic disease, and or patients with early proliferative disease may enhance the onset of fibrovascular proliferative morbidity, whereas the present invention using MTKIs combining VEGF suppression with c-MET suppression may both reduce diabetic macular edema and suppress diabetic fibrovascular proliferation.

VEGFR [3] = test: Virtual discovery: suppression of VEGFR; conditions: virtually discovered
VEGFR2 [4] = biological target: T1, VEGFR2 (Homo sapiens (Human), UniProt P35968); conditions: human umbilical vein endothelial cells; cited from earlier work
Target sequence in this assay (P35968 20-1356): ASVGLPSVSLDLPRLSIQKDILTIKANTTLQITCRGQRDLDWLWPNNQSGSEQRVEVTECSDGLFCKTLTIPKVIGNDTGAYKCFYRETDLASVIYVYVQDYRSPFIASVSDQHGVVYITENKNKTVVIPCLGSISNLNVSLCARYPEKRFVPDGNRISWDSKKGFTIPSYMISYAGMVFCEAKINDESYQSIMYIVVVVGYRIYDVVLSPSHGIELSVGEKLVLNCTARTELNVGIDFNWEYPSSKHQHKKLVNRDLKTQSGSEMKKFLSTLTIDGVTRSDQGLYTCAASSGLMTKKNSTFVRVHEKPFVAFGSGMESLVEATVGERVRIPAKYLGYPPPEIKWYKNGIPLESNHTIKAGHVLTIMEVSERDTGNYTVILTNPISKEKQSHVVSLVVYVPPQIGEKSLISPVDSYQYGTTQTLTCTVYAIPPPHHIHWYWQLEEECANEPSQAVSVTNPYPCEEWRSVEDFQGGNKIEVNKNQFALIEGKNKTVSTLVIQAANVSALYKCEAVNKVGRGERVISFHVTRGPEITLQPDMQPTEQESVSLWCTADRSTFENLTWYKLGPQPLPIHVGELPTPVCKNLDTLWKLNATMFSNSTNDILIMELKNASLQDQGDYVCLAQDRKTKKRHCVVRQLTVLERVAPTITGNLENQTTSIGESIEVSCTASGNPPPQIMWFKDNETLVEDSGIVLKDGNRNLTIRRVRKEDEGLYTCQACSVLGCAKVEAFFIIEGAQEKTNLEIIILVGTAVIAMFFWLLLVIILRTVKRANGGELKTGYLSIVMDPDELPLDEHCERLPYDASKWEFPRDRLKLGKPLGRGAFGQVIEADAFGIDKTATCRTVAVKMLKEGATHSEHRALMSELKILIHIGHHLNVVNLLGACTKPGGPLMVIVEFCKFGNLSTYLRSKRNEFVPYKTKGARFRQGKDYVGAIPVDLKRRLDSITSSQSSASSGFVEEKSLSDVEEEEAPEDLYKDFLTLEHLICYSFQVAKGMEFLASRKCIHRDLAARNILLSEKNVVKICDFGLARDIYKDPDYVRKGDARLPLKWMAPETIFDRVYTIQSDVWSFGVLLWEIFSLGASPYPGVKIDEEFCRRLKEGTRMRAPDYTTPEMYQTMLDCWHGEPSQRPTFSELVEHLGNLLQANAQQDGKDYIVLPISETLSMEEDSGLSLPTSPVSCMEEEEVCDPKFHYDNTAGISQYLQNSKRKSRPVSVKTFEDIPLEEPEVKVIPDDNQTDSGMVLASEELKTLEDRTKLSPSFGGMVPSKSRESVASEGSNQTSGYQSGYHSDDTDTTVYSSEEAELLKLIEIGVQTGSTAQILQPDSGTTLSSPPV

[5] = Residence in the vitreous humor; format: in vivo; conditions: estimated for its molecular weight
VEGFR2 [6] = biological target: T1, VEGFR2; conditions: HUVEC, in vitro angiogenic assays; read-out: IC50 VEGFR2 inhibition; cited from earlier work
VEGFR [7] = conditions: read-out: IC50 (concentration required for efficacy); cited from earlier work

Compound: CCCCCCCCCCCCCCCC(=O)OC[n+]1ccc(Oc2ccc(NC(=O)C3(C(=O)Nc4ccc(F)cc4)CC3)cc2)c2cc(OC)c(OC)cc21 [Cabozantinib N-acyl methyl palmitate]
- suppression of macular edema [1]: long-lasting suppression of macular edema
- suppression of fibrovascular proliferation ([1]; vs Lucentis or Eylea in the other eye, CNV 2 weeks after dosing, examined 6 weeks later): Greater suppression of fibrovascular proliferation
- suppression of intraocular proliferative retinopathy [2]: suppress intraocular proliferative retinopathy
- suppression of VEGFR (VEGFR [3]): suppress

Compound: Cn1cnc(-c2cc3nccc(Oc4ccc(NC(=S)NC(=O)Cc5ccccc5)cc4F)c3s2)c1 [MGCD-265]
- IC50 (VEGFR2 [4]): 3 nM

Compound: Cc1ccc(Nc2nccc(N(C)c3ccc4c(C)n(C)nc4c3)n2)cc1S(N)(=O)=O [pazopantinib, Pazopantinib]
- intravitreal clearance [5]: within hours

Compound: bevacizumab [Avastin]
- IC50 (VEGFR2 [6]): ~1.4 nM

Compound: foretinib N-acyl methyl palmitate
- suppression of intraocular proliferative retinopathy [2]: suppress intraocular proliferative retinopathy

Compound: ranibizumab [Lucentis]
- IC50 (VEGFR [7]): ~19 nM
